Results from patent US6521600B1, “Compound, WF002, production thereof and use thereof” (Fujisawa Pharmaceutical Co., Ltd., priority 1998, dated 2003).

Key:
[1] = Solubility in solvents; format: physicochemical
[2] = test system: Cryptococcus neoformans YC203; test: Antimicrobial activity, serial broth dilution method (MEC); format: cell-based; conditions: yeast nitrogen base dextrose medium, 37° C., 48 hours, 5% CO2, microscopic observation
Description: (§1) Test 1 (Antimicrobial Activity) Antimicrobial activity of WF002 was determined by a serial broth dilution method using 96-well microtiter plate in 100 μl of yeast nitrogen base dextrose medium. The inoculum was adjusted to 1×10^5 colony forming units/ml. Candida albicans and Aspergillus fumigatus were cultured at 37° C. for 24 hours and Cryptococcus neoformans was cultured at 37° C. for 48 hours in 5% CO2 incubator. After incubation, the growth inhibition of microorganism in each well was determined by microscopic observation. The results were shown as MEC (minimum effective concentration: μg/ml) value (Table 2).

[3] = test system: Candida albicans FP633; test: as above; format: cell-based; conditions: yeast nitrogen base dextrose medium, 37° C., 24 hours, microscopic observation
Description: as §1

[4] = test system: Aspergillus fumigatus FP1305; test: as above; format: cell-based; conditions: yeast nitrogen base dextrose medium, 37° C., 24 hours, microscopic observation
Description: as §1

Solubility ([1]; methanol, ethyl acetate, dimethylsulfoxide): Soluble
Solubility ([1]; water, n-hexane): Insoluble
SMILES: CC(=O)OC1CC2(C)C(CCC3(C)C2CCC2=C4C(=O)CC5C(C)COC(O)C45CCC23C)C(C)(C)C1OC1OC(CO)C(O)C(O)C1O (centres unmarked) [WF002]
MEC (minimum effective concentration) [2]: 50 µg/mL
MEC (minimum effective concentration) [3]: 6.25 µg/mL
MEC (minimum effective concentration) [4]: 0.04 µg/mL
